Data on three compounds can be found in publication PMC10100792, “Host-Erythrocytic Sphingosine-1-Phosphate Regulates Plasmodium Histone Deacetylase Activity and Exhibits Epigenetic Control over Cell Death and Differentiation” (Microbiology Spectrum, 2023).

The Kd is a measure of binding affinity in units of concentration.

Test [1] addresses T1, hSphK-1 (sphingosine kinase 1) (Homo sapiens, UniProt Q9NYA1).
T1 construct: gene SPHK1; full-length, 6×His-SphK-1 (1155 bp CDS)
The test is described as follows: fluorometric conversion of NBD-Sph ([…]) to NBD-S1P by purified rSphK-1. In kind it is biochemical.

The target of test [2] is T2, hHDAC-1 (Homo sapiens, UniProt Q13547).
T2 construct: gene HDAC1
The test is described as follows: microscale thermophoresis. In kind it is binding. For orientation: In MST a laser heats a spot of the sample, and binding alters the fluorescence response.

Test [3] deals with T3, PfHDAC-1 (histone deacetylase-1) (Plasmodium falciparum, UniProt Q9XYC7). Kind of test: microscale thermophoresis; also lipid overlay, S1P-bead pull-down, and […] inhibition of the recombinant enzyme at […]. In kind it is binding. The arrangement: gene HDAC1; full-length, 6×His-PfHDAC-1 (1380 bp CDS from Pf3D7).
The target in test [4] is T3, PfHDAC-1 (histone deacetylase-1). The test is described as follows: biochemical. The arrangement: gene HDAC1.

The structures appear in SMILES notation.

T3 sequence (Q9XYC7 1-449): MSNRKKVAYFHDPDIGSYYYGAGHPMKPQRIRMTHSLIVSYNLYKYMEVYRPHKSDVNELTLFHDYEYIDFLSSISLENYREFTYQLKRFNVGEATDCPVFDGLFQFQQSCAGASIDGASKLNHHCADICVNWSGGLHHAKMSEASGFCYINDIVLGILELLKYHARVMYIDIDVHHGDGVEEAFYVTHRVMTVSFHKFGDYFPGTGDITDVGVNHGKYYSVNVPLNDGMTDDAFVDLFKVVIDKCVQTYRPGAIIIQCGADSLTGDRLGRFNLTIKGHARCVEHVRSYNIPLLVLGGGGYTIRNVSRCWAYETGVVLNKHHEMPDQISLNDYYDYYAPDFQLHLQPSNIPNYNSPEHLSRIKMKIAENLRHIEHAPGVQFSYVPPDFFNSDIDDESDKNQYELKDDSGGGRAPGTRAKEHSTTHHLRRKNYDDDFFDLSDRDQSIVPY
T1 sequence (Q9NYA1 whole entry): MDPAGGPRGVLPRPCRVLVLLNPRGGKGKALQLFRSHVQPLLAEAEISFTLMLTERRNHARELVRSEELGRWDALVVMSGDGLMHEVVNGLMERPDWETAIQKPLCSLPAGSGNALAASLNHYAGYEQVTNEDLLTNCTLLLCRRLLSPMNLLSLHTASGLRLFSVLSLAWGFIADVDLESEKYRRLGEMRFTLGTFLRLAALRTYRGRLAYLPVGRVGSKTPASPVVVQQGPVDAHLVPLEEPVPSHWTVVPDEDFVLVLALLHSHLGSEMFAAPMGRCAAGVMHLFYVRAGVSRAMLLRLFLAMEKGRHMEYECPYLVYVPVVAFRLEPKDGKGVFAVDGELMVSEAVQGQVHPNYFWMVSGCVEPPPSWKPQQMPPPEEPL
T2 sequence (Q13547 whole entry): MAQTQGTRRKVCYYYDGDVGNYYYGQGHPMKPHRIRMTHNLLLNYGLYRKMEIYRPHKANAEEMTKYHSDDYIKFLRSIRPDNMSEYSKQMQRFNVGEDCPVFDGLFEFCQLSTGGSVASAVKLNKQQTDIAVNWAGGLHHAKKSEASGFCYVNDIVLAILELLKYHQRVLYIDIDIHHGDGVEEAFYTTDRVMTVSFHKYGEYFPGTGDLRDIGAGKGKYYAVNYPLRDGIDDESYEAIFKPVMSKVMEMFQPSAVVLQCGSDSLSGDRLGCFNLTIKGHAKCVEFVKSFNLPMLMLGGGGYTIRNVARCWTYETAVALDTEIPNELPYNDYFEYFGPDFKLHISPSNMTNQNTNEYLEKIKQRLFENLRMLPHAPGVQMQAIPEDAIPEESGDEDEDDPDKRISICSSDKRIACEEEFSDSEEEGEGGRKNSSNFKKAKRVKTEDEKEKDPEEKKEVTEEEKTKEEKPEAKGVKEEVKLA

For the compound `N[C@@H](CO)[C@H](O)/C=C/CCCCCCCCCCCCCNc1ccc([N+](=O)[O-])c2nonc12` [NBD-Sph, NBD-Sphingosine], the “fluorometric conversion of NBD-Sph (10 μM) to NBD-S1P by purified rSphK-1” value in test [1] is on record as “fluorimetry-based enzymatic assay using NBD-sphingosine”. For the compound `CCCCCCCCCCCCC/C=C/[C@@H](O)[C@@H](N)COP(=O)(O)O` [S1P, Sphingosine-1-Phosphate], the Kd came to 1.61 ± 0.8 µM in test [2] and 0.177 ± 0.024 µM in test [3]. The compound `O=C(CCCCCCC(=O)Nc1ccccc1)NO` [SAHA, Suberoylanilide Hydroxamic Acid] gave a Kd in test [4] of 2.09 ± 0.45 µM.
